Consider four compounds from patent US20230346961A1, “GLP-1 AND GIP RECEPTOR CO-AGONISTS” (Novo Nordisk A/S, priority 2020, published 2023).

One may read the EC50 as the concentration giving half of the maximal effect. Read a low EC50 as greater potency.

One experiment concerns the target human glucagon receptor (Homo sapiens, UniProt P47871). In words: cell-based.
A further experiment deals with T1, mouse GLP-1 receptor (Mus musculus, UniProt O35659).
T1 sequence (O35659 22-463): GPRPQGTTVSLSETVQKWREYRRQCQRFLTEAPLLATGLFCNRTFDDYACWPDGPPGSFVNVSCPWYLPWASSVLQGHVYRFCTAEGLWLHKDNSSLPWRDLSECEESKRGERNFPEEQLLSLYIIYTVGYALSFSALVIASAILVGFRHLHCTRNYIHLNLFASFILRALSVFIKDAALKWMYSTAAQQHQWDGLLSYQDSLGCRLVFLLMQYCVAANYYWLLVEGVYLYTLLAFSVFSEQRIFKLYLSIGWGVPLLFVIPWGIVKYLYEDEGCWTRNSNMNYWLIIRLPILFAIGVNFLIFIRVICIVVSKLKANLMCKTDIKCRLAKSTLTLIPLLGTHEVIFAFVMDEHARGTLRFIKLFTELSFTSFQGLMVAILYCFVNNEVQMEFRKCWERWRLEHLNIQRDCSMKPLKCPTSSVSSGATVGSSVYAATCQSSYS

A further experiment has as its target human GLP-1 receptor (Homo sapiens, UniProt P43220). In words: cell-based. The following applies: hGLP-1R.
A further experiment addresses T2, mouse GIP receptor (Mus musculus, UniProt Q0P543).
T2 sequence (Q0P543 19-460): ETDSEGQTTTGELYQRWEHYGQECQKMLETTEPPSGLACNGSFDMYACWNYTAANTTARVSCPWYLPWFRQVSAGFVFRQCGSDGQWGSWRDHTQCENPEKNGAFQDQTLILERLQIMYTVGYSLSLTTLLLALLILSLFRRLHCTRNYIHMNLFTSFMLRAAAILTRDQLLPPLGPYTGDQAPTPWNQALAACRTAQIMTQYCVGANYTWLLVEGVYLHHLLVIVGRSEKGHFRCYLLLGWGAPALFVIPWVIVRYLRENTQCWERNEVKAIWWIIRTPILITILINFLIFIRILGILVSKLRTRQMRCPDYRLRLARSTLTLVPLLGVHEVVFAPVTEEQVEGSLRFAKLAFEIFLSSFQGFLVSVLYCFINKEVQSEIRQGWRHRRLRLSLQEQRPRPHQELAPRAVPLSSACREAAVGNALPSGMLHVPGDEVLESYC
As to the kind of experiment: cell-based.

Starred links: 1 amine or outer side, 2 acyl side, 3 side chain; linkers in the order of their positions; H or OH if unused. Non-standard residues stand in square brackets, D forms with d. Residues, ends and D or L forms follow the SMILES beside them. Groups on a side chain read outwards from the residue. *: point of attachment. C20 diacid = O=C(O)CCCCCCCCCCCCCCCCCCC(=O)*; γGlu = O=C(O)[C@H](CCC(=O)[*:2])N[*:1]; εLys = N[C@@H](CCCCN[*:1])C(=O)[*:2]; Trx = NC[C@H]1CC[C@H](C(=O)O)CC1; AEEA = NCCOCCOCC(=O)O; Aib = CC(C)(N)C(=O)O

Sequence of human GLP-1 receptor (P43220 24-463): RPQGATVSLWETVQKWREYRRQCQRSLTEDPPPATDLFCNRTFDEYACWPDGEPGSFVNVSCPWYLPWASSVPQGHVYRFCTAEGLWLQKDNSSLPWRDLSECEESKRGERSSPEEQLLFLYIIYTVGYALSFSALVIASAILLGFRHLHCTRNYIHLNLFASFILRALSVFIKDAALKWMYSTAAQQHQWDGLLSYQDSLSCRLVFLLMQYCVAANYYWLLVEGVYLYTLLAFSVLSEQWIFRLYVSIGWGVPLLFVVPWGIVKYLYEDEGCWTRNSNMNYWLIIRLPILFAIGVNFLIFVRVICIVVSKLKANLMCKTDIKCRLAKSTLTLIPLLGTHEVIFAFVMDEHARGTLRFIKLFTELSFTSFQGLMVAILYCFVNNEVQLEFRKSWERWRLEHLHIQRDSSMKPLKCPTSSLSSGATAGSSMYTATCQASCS
Sequence of human glucagon receptor (P47871 26-477): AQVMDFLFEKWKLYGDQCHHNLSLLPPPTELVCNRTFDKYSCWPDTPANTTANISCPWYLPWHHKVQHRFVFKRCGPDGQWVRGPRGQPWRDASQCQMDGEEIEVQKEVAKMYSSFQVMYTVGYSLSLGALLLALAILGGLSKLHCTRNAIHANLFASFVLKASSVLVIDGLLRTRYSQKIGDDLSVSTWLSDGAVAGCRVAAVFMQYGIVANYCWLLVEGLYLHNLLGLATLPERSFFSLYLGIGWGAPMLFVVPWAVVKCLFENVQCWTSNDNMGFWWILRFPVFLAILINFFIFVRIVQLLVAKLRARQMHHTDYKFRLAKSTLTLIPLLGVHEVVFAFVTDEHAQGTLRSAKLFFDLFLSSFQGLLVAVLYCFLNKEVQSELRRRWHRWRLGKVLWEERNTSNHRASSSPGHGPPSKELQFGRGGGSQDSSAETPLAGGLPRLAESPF
Description for mouse GLP-1 receptor: The in vitro functional potency is the measure of target receptor activation in a whole cell assay.
In vitro functional potency was determined by measuring the response of the target receptor in a reporter gene assay in individual cell lines. […] When the respective receptor is activated, it results in the production of cAMP, which in turn results in expression of the luciferase protein. When assay incubation is completed, luciferase substrate (luciferin) is added resulting in the enzymatic conversion of luciferin to oxyluciferin and producing bioluminescence. The luminescence is measured as the readout for the assay.
The cells lines used in these assays were BHK cells with BHKTS13 as a parent cell line. The cell lines were derived from a clone containing the CRE luciferase element and were established by further transfection with the respective receptor to obtain the relevant cell line.
The cells were cultured at 37° C. with 5% CO2 in Cell Culture Medium. They were aliquoted and stored in liquid nitrogen. The cells were kept in continuous culture and were seeded out the day before each assay.
GLP-1R and GcgR Cell Culture Medium consisted of DMEM medium with 10% FBS, 500 μg/mL G418, and 300 μg/mL hygromycin. GIPR Cell Culture Medium consisted of DMEM medium with 10% FBS, 400 μg/mL G418, and 300 μg/mL hygromycin. Assay Buffer consisted of DMEM w/o phenol red, 10 mM Hepes, 1×Glutamax, 1% ovalbumin, and 0.1% Pluronic F-68 with the addition of HSA at twice the final assay concentration.
• 1) Cells were plated at 5000 cells/well and incubated overnight in the assay plate. • 2) Cells were washed once in DPBS. • 3) Stocks of the test compounds and reference compounds in concentrations ranging from 100-300 μM were diluted 1:150 in Assay Buffer. Compounds were then diluted 1:10 in column 1 of a 96 deep well dilution plate and then carried across the row creating a 3.5 fold, 12 point dilution curve. • 4) Assay Buffer (50 μl aliquot) with or without HSA was added to each well in the assay plate. • 5) A 50 μl aliquot of compound or blank was transferred from the dilution plate to the assay plate containing the Assay Buffer with or without HSA. • 6) The assay plate was incubated for 3 h in a 5% CO2 incubator at 37° C. 7) The cells were washed once with DPBS. • 8) A 100 μl aliquot of DPBS was added to each well of the assay plate. • 9) A 100 μl aliquot of steadylite plus reagent (light sensitive) was added to each well of the assay plate. • 10) Each assay plate was covered with aluminum foil to protect it from light and shaken at 250 RPM for 30 min at room temperature. • 11) Each assay plate was read in a microtiter plate reader.
The data from the microtiter plate reader was first regressed in an Excel in order to calculate the x-axis, log scale concentrations based on the individual test compound's stock concentration and the dilutions of the assay. […] The software performs a non-linear regression (log(agonist) vs response). A minimum of two replicates was measured for each sample. The reported values are averages of the replicates.

For the compound `CC[C@H](C)[C@H](NC(=O)[C@H](CO)NC(=O)[C@H](Cc1ccc(O)cc1)NC(=O)[C@H](CC(=O)O)NC(=O)[C@H](CO)NC(=O)[C@@H](NC(=O)[C@H](Cc1ccccc1)NC(=O)[C@@H](NC(=O)CNC(=O)[C@H](CCC(=O)O)NC(=O)C(C)(C)NC(=O)[C@@H](N)Cc1ccc(O)cc1)[C@@H](C)O)[C@@H](C)O)C(=O)N[C@@H](Cc1ccc(O)cc1)C(=O)N[C@@H](CC(C)C)C(=O)N[C@@H](CC(=O)O)C(=O)N[C@@H](CCCCN)C(=O)N[C@@H](CCC(N)=O)C(=O)N[C@@H](C)C(=O)N[C@@H](C)C(=O)NC(C)(C)C(=O)N[C@@H](CCCCNC(=O)[C@@H](N)CCCCNC(=O)[C@@H](N)CCCCNC(=O)CC[C@H](NC(=O)[C@H]1CC[C@H](CNC(=O)CCCCCCCCCCCCCCCCCCC(=O)O)CC1)C(=O)O)C(=O)N[C@@H](Cc1ccccc1)C(=O)N[C@H](C(=O)N[C@@H](CC(N)=O)C(=O)N[C@@H](Cc1c[nH]c2ccccc12)C(=O)N[C@@H](CC(C)C)C(=O)N[C@@H](CC(C)C)C(=O)N[C@@H](C)C(=O)NCC(=O)NCC(=O)N1CCC[C@H]1C(=O)N[C@@H](CO)C(=O)N[C@@H](CO)C(=O)NCC(=O)N[C@@H](C)C(=O)N1CCC[C@H]1C(=O)N1CCC[C@H]1C(=O)N1CCC[C@H]1C(=O)N[C@@H](CO)C(N)=O)C(C)C` [Compound 14] (H-Y[Aib]EGTFTSDYSIYLDKQAA[Aib]K([εLys-εLys-γGlu-Trx-C20 diacid])FVNWLLAGGPSSGAPPPS-NH2; N-terminus assumed), the EC50 at human glucagon receptor was above 10 nM; on mouse GLP-1 receptor, 0.006 nM; on human GLP-1 receptor (CRE Luc 0% HSA EC50, 0% HSA) it was 0.0114 nM; on human GLP-1 receptor (CRE Luc 1% HSA EC50, 1% HSA), 0.377 nM; on mouse GIP receptor it was 0.0186 nM.

`CC[C@H](C)[C@H](NC(=O)[C@H](CO)NC(=O)[C@H](Cc1ccc(O)cc1)NC(=O)[C@H](CC(=O)O)NC(=O)[C@H](CO)NC(=O)[C@@H](NC(=O)[C@H](Cc1ccccc1)NC(=O)[C@@H](NC(=O)CNC(=O)[C@H](CCC(=O)O)NC(=O)C(C)(C)NC(=O)[C@@H](N)Cc1ccc(O)cc1)[C@@H](C)O)[C@@H](C)O)C(=O)N[C@@H](Cc1ccc(O)cc1)C(=O)N[C@@H](CC(C)C)C(=O)N[C@@H](CCC(=O)O)C(=O)N[C@@H](CCCCN)C(=O)N[C@@H](CCCCNC(=O)[C@@H](N)CCCCNC(=O)[C@@H](N)CCCCNC(=O)CC[C@H](NC(=O)CCCCCCCCCCCCCCCCCCC(=O)O)C(=O)O)C(=O)N[C@@H](C)C(=O)N[C@@H](C)C(=O)NC(C)(C)C(=O)N[C@@H](CCC(=O)O)C(=O)N[C@@H](Cc1ccccc1)C(=O)N[C@H](C(=O)N[C@@H](CC(N)=O)C(=O)N[C@@H](Cc1c[nH]c2ccccc12)C(=O)N[C@@H](CC(C)C)C(=O)N[C@@H](CC(C)C)C(=O)N[C@@H](C)C(=O)NCC(=O)NCC(=O)N1CCC[C@H]1C(=O)N[C@@H](CO)C(=O)N[C@@H](CO)C(=O)NCC(=O)N[C@@H](C)C(=O)N1CCC[C@H]1C(=O)N1CCC[C@H]1C(=O)N1CCC[C@H]1C(=O)N[C@@H](CO)C(N)=O)C(C)C` [Compound 31] (H-Y[Aib]EGTFTSDYSIYLEKK([εLys-εLys-γGlu-C20 diacid])AA[Aib]EFVNWLLAGGPSSGAPPPS-NH2; N-terminus assumed): the EC50 on human glucagon receptor is 9.6 nM; on mouse GLP-1 receptor, 0.0013 nM; at human GLP-1 receptor (CRE Luc 0% HSA EC50, 0% HSA), 0.0019 nM; at human GLP-1 receptor (CRE Luc 1% HSA EC50, 1% HSA), 0.0543 nM; at mouse GIP receptor it was 0.0134 nM.

For `CC[C@H](C)[C@H](NC(=O)[C@H](CO)NC(=O)[C@H](Cc1ccc(O)cc1)NC(=O)[C@H](CC(=O)O)NC(=O)[C@H](CO)NC(=O)[C@@H](NC(=O)[C@H](Cc1ccccc1)NC(=O)[C@@H](NC(=O)CNC(=O)[C@H](CCC(=O)O)NC(=O)C(C)(C)NC(=O)[C@@H](N)Cc1ccc(O)cc1)[C@@H](C)O)[C@@H](C)O)C(=O)N[C@@H](Cc1ccc(O)cc1)C(=O)N[C@@H](CC(C)C)C(=O)N[C@@H](CCC(=O)O)C(=O)N[C@@H](CCCCN)C(=O)N[C@@H](CCC(N)=O)C(=O)N[C@@H](C)C(=O)N[C@@H](C)C(=O)NC(C)(C)C(=O)N[C@@H](CCCCNC(=O)[C@@H](N)CCCCNC(=O)[C@@H](N)CCCCNC(=O)CC[C@H](NC(=O)[C@H]1CC[C@H](CNC(=O)CCCCCCCCCCCCCCCCCCC(=O)O)CC1)C(=O)O)C(=O)N[C@@H](Cc1ccccc1)C(=O)N[C@H](C(=O)N[C@@H](CCC(N)=O)C(=O)N[C@@H](Cc1c[nH]c2ccccc12)C(=O)N[C@@H](CC(C)C)C(=O)N[C@@H](CC(C)C)C(=O)N[C@@H](CCC(=O)O)C(=O)NCC(=O)NCC(=O)N1CCC[C@H]1C(=O)N[C@@H](CO)C(=O)N[C@@H](CO)C(=O)NCC(=O)N[C@@H](C)C(=O)N1CCC[C@H]1C(=O)N1CCC[C@H]1C(=O)N1CCC[C@H]1C(=O)N[C@@H](CO)C(N)=O)C(C)C` [Compound 24] (H-Y[Aib]EGTFTSDYSIYLEKQAA[Aib]K([εLys-εLys-γGlu-Trx-C20 diacid])FVQWLLEGGPSSGAPPPS-NH2; N-terminus assumed), the EC50 on human glucagon receptor was above 10 nM; at mouse GLP-1 receptor it was 0.0099 nM; on human GLP-1 receptor (CRE Luc 0% HSA EC50, 0% HSA), 0.0047 nM; at human GLP-1 receptor (CRE Luc 1% HSA EC50, 1% HSA), 0.114 nM; on mouse GIP receptor it was 0.0405 nM.

For the compound `CC[C@H](C)[C@H](NC(=O)[C@H](CO)NC(=O)[C@H](Cc1ccc(O)cc1)NC(=O)[C@H](CC(=O)O)NC(=O)[C@H](CO)NC(=O)[C@@H](NC(=O)[C@H](Cc1ccccc1)NC(=O)[C@@H](NC(=O)CNC(=O)[C@H](CCC(=O)O)NC(=O)C(C)(C)NC(=O)[C@@H](N)Cc1ccc(O)cc1)[C@@H](C)O)[C@@H](C)O)C(=O)N[C@@H](Cc1ccc(O)cc1)C(=O)N[C@@H](CC(C)C)C(=O)N[C@@H](CCC(=O)O)C(=O)N[C@@H](CCCCNC(=O)COCCOCCNC(=O)COCCOCCNC(=O)CC[C@H](NC(=O)CCCCCCCCCCCCCCCCCCC(=O)O)C(=O)O)C(=O)N[C@@H](CCC(N)=O)C(=O)N[C@@H](C)C(=O)N[C@@H](C)C(=O)NC(C)(C)C(=O)N[C@@H](CCC(=O)O)C(=O)N[C@@H](Cc1ccccc1)C(=O)N[C@H](C(=O)N[C@@H](CC(N)=O)C(=O)N[C@@H](Cc1c[nH]c2ccccc12)C(=O)N[C@@H](CC(C)C)C(=O)N[C@@H](CC(C)C)C(=O)N[C@@H](C)C(=O)NCC(=O)NCC(=O)N1CCC[C@H]1C(=O)N[C@@H](CO)C(=O)N[C@@H](CO)C(=O)NCC(=O)N[C@@H](C)C(=O)N1CCC[C@H]1C(=O)N1CCC[C@H]1C(=O)N1CCC[C@H]1C(=O)N[C@@H](CO)C(N)=O)C(C)C` [Compound 29] (H-Y[Aib]EGTFTSDYSIYLEK([AEEA-AEEA-γGlu-C20 diacid])QAA[Aib]EFVNWLLAGGPSSGAPPPS-NH2; N-terminus assumed), the concentration giving a half-maximal response (EC50) is above 10 nM on human glucagon receptor; 0.0018 nM on mouse GLP-1 receptor; 0.0062 nM on human GLP-1 receptor (CRE Luc 0% HSA EC50, 0% HSA); 0.429 nM at human GLP-1 receptor (CRE Luc 1% HSA EC50, 1% HSA); 0.051 nM at mouse GIP receptor.
